Measurements taken from patent US20110039763A1, “TARGETED ANTIMICROBIAL MOIETIES” (C3 JIAN, INC., priority 2009, published 2011).

Tests used:
[1] = system: microorganisms; assay: Morphology, biofilm and growth disrupting peptides (Table 5); type: cell-based; set-up: key: A: Peptide aggregates; B: Less hyphal formation; Clumps; Diffuse clumps and small polyps; F: Diffuse growth; H: Thin; I: Growth inhibition; Microcolony formation; Rippled; Small polyps; Thick; W: Halo formation on top, microlonies on bottom
Excerpt: In certain embodiments peptides that induce alterations in phenotype or other biological activities can also be used as antimicrobial effector moieties.

[2] = system: microorganisms; assay: Peptide activities: targeting/binding, antimicrobial, growth or phenotype altering (Tables 7, 8); type: cell-based; details: peptides having multiple activities

Substance | Organism, effect: C. jejuni [1] | Organism, effect: E. coli [1] | Organism, effect: E. faecalis [1] | Organism, effect: MRSA [1] | Organism, effect: P. aeruginosa [1] | Organism, effect: S. epidermidis [1] | Organism, effect: S. pneumoniae [1] | Activities [2] | Organism, effect: M. luteus ([1]; M. luteus)
PF-355: peptide having multiple activities (chain 1 WIAIGLLLYFSLKNQ; chain 2 WIAIGLLLYFSLKNQ; Peptide with targeting and/or antimicrobial activity) | C. jejuni (D) | E. coli (C) | E. faecalis (D) | MRSA (A) | P. aeruginosa (A) | S. epidermidis (C) | S. pneumoniae (D) | G B | 
PF-356: peptide having multiple activities (chain 1 VSIKIGAIVIGMIGLMELLTE; chain 2 VSIKIGAIVIGMIGLMELLTE; Peptide with targeting and/or antimicrobial activity) | C. jejuni (D) |  | E. faecalis (R) | MRSA (C) | P. aeruginosa (A) | S. epidermidis (S) | S. pneumoniae (R) | G B | 
PF-357: peptide having multiple activities (chain 1 MLTIIIGFIFWTMTLMLGYLIGEREGRKHE; chain 2 MLTIIIGFIFWTMTLMLGYLIGEREGRKHE; Peptide with targeting and/or antimicrobial activity) |  |  |  | MRSA (M) |  | S. epidermidis (M) | S. pneumoniae (M) | G B | M. luteus (C)
PF-374: peptide having multiple activities (chain 1 HLFFVKGMFILCQKNQINDE; chain 2 HLFFVKGMFILCQKNQINDE; Peptide with targeting and/or antimicrobial activity) |  | E. coli (C) | E. faecalis (C) | MRSA (M) |  | S. epidermidis (C) |  | G B | 
PF-376: peptide having multiple activities (chain 1 MTVFEALMLAIAFATLIVKISNKNDKK; chain 2 MTVFEALMLAIAFATLIVKISNKNDKK; Peptide with targeting and/or antimicrobial activity) |  | E. coli (C) | E. faecalis (C) | MRSA (C) |  | S. epidermidis (C) |  | G B | 
PF-379: peptide having multiple activities (chain 1 VFVVLFIIYLASKLLTKLFPIKK; chain 2 VFVVLFIIYLASKLLTKLFPIKK; Peptide with targeting and/or antimicrobial activity) |  | E. coli (C) | E. faecalis (C) | MRSA (C) |  | S. epidermidis (C) |  | G B | 
PF-380: peptide having multiple activities (chain 1 KKIIPLITLFVVTLVG; chain 2 KKIIPLITLFVVTLVG; Peptide with targeting and/or antimicrobial activity) | C. jejuni (D) | E. coli (C) | E. faecalis (C) | MRSA (D) | P. aeruginosa (A) | S. epidermidis (C) | S. pneumoniae (D) | G B | 
PF-386: peptide having multiple activities (chain 1 FTLTLITTIVAILNYKDKKK; chain 2 FTLTLITTIVAILNYKDKKK; Peptide with targeting and/or antimicrobial activity) |  | E. coli (C) | E. faecalis (C) | MRSA (C) |  | S. epidermidis (C) |  | G B | 
PF-398: peptide having multiple activities (chain 1 ILVVLAGILLVVLSYVGISKFKMNC; chain 2 ILVVLAGILLVVLSYVGISKFKMNC; Peptide with targeting and/or antimicrobial activity) |  | E. coli (C) | E. faecalis (C) | MRSA (C) |  | S. epidermidis (C) |  | G B | 
PF-399: peptide having multiple activities (chain 1 FPIISALLGAIICIAIYSFIVNRKA; chain 2 FPIISALLGAIICIAIYSFIVNRKA; Peptide with targeting and/or antimicrobial activity) |  | E. coli (C) | E. faecalis (C) | MRSA (C) |  | S. epidermidis (C) |  | G B | 
PF-407: peptide having multiple activities (chain 1 KPKNKKEKTVISYEKLLSMY; chain 2 KPKNKKEKTVISYEKLLSMY; Peptide with targeting and/or antimicrobial activity) |  |  | E. faecalis (R) | MRSA (C) |  | S. epidermidis (M) | S. pneumoniae (R) | G B | 
PF-410: peptide having multiple activities (chain 1 FALELIALCRNLFIVYFP; chain 2 FALELIALCRNLFIVYFP; Peptide with targeting and/or antimicrobial activity) |  | E. coli (S) | E. faecalis (C) | MRSA (M) |  | S. epidermidis (C) |  | G B | 
PF-411: peptide having multiple activities (chain 1 WVAVAILLNIALQTQLT; chain 2 WVAVAILLNIALQTQLT; Peptide with targeting and/or antimicrobial activity) | C. jejuni (D) | E. coli (C) | E. faecalis (D) | MRSA (D) | P. aeruginosa (A) | S. epidermidis (C) | S. pneumoniae (D) | G B | 
